The values that follow come from PubChem BioAssay AID179 (DTP/NCI, 2004).

Activity calls are given as the source filed them.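 The calls were made as follows: active = compounds giving half or more protection of infected cells from virus-caused growth loss, again on retest; inactive = the rest.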 Where a SMILES comes first, the peptide text is derived from it. The star is where a group is joined. Boc = CC(C)(C)OC(=O)*

The subject of this experiment is CEM cells HIV-1 protection, formazan growth assay. The experiment in a line: NCI AIDS Antiviral Assay. Conditions: for IC50: measured here: growth of uninfected CEM cells. In a few lines:
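Screen of anti-HIV-1 activity in human CEM cells using a formazan-based growth measurement at five drug concentrations. Hits with 50% or greater protection were repeated, and confirmation required reproducible complete protection.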

With `Cn1c(=O)c2ccc(-c3ccc(Br)cc3)nc2n(C)c1=O`, the result was inactive.
For orientation: EC50 means the concentration that produces a half-maximal response. What is called IC50 is the concentration needed to halve the response being measured. Consider `CCC(C)/C(=C\C(=O)O)C(=O)O` (configuration not stated), for which the EC50 is over 200 µM and the IC50 was over 200 µM.
Consider `COC(=O)C(/C(=N\O)C(=O)Nc1cccc(Cl)c1C)c1cnc2ccccc2n1` (configuration not stated), for which the EC50 was over 17.4 µM and the IC50 is over 17.4 µM.
Turning to `Nc1c(O)c(S(=O)(=O)O)c(O)c2c1C(=O)c1ccccc1C2=O`, the EC50 was 200 µM and the IC50 was determined as 234 µM.
For the compound `COC(=O)C(=O)C(C(=O)C=C(C)C)C(=O)C(=O)Nc1nc2ccc([N+](=O)[O-])cc2s1` (configuration not stated), the EC50 is over 60.3 µM and the IC50 is over 60.3 µM.
Take `C=C(CCC(C)C1CCC2C3=C(C(=O)CC21C)C1(C)CCC(=O)[C@@H](C)C1CC3=O)C(C)C(=O)O` (some centres not stated): the EC50 is over 200 µM and the IC50 amounted to 46.8 µM.
Taken in the same sequence, the figures for `[Pt].c1ccc([PH+](CC[PH+](CC[PH+](c2ccccc2)c2ccccc2)CC[PH+](c2ccccc2)c2ccccc2)c2ccccc2)cc1` were over 21.9 µM and 0.417 µM.
Take `CC(C)OC(=O)c1ccc(CCC2=CC(=O)C=CC2=O)cc1`: the EC50 was over 200 µM and the concentration for half-maximal inhibition (IC50) came to 8.32 µM.
The like results for `CN(CC(O)C(O)C(O)C(O)CO)CN1C(=O)C(=O)c2ccccc21` (configuration not stated) were, in that order, over 200 µM and 34.7 µM.
As for `CCOC(=O)C(CC(C)C)NC(=O)C(Cc1ccc(N(CCCl)CCCl)cc1)NC(C)=O` (configuration not stated), the EC50 was over 10.7 µM and the IC50 was found to be 0.132 µM.
`CCN(CC)CCn1c2c3ccccc3ccc2c2oc(=O)c3ccccc3c21`: the EC50 is over 16.2 µM and the IC50 is over 16.2 µM.
Consider `CCOC1Oc2ccccc2-c2nc(C)c(C#N)cc21` (configuration not stated), for which the EC50 is over 83.2 µM and the IC50 was over 83.2 µM.
Take `CCN(Cc1ccccc1)c1ccc(/C=C/c2ccnc3ccccc23)cc1`: the EC50 was over 10.2 µM and the IC50 is 8.32 µM.
With `Nc1cc(I)c2cccnc2c1O`, the EC50 is over 209 µM and the IC50 was found to be 1.26 µM.
In the case of `Cc1cc(O)c2c(c1)C(O)(c1ccc3c(c1O)C(=O)c1c(O)cc(C)cc1C3(O)C1OC(CO)C(O)C(O)C1O)c1cccc(O)c1C2=O` (configuration not stated), the result was inactive.
For the compound `CCCc1cc(=O)oc2c3c(c4c(c12)OC(C)(C)C=C4)OC(C)[C@H](C)[C@@H]3O` (some centres not stated), the EC50 was 5.01 µM and the IC50 worked out at 13.8 µM.
Take `CC1(C)CC(C2CC(C)(C)CC(C)(C)[C@H]2O)[C@@H](O)C(C)(C)C1` (some centres not stated): the EC50 was over 12 µM and the IC50 is over 12 µM.
In the case of `CN1CSCSC1`, the outcome was inactive.
For the compound `Cn1c(=S)[nH]n(CCOc2ccccc2)c1=S`, the EC50 was over 200 µM and the IC50 is over 200 µM.
Consider `CCOC(=O)CCCSCCCC1(CCCSCCCC(=O)OCC)OCCO1`, for which the EC50 is over 39.8 µM and the IC50 is over 39.8 µM.
In the case of `O=C(O)c1ccc([As](=O)(O)O)c([N+](=O)[O-])c1`, the EC50 is over 200 µM and the concentration for half-maximal inhibition (IC50) was over 200 µM.
On to `O=C1/C(=C/c2ccc(Cl)cc2)Oc2cc(O)ccc21`, for which the EC50 is over 200 µM and the IC50 was determined as 37.2 µM.
For the compound `C[C@@H]1C(=O)c2c(O)cc(O)cc2O[C@@H]1C`, the EC50 is over 200 µM and the IC50 was over 200 µM.
Regarding `Cc1ccc(NC2=N/C(=C/c3ccco3)C(Cl)=N2)cc1`, the EC50 is over 200 µM and the concentration for half-maximal inhibition (IC50) came out at 158 µM.
Regarding `Cc1cn(C2CC(OC(c3ccccc3)(c3ccccc3)c3ccccc3)C(CO)O2)c(=O)[nH]c1=O` (configuration not stated), the EC50 is over 200 µM and the IC50 is 10.5 µM.
As to `N#Cc1c(N)c(C(=O)O)nn(-c2cccc(C(F)(F)F)c2)c1=O`, the result was inactive.
For `C=C(C)CC(C)(c1cc2ccccc2n1C)N1CCOCC1` (configuration not stated), the EC50 is over 100 µM and the half-maximal inhibitory concentration (IC50) came to 64.6 µM.
Consider `CC1CNC(=S)SSC(=S)N1` (configuration not stated), for which the EC50 was over 200 µM and the IC50 amounted to 25.1 µM.
Regarding `CCCCN(CCCC)C(=NCc1ccccc1)NC#N`, the EC50 was over 100 µM and the 50% inhibitory concentration (IC50) is 17.4 µM.
The like results for `Nc1c(Cl)cccc1-c1c[nH]c(Cl)c1Cl` were, in that order, over 138 µM and 72.4 µM.
The like results for `COC1OOC(OC)c2ccccc2-c2ccccc21` (configuration not stated) were, in that order, over 200 µM and 12.3 µM.
In the case of `O=C1OC2(CCCCC2)c2ccccc21`, the EC50 was over 339 µM and the IC50 was 186 µM.
In the case of `COc1ccc(/C=c2\sc3n(c2=O)CCN=3)cc1`, the result was inactive.
As to `CC1=C(C(=O)Nc2ccccc2C)C(c2ccc(Cl)c(Cl)c2)C(C(=O)Nc2ccccc2C)=C(C)N1`, the outcome was inactive.
As for `COc1ccc(/C=C(\C(C)=O)C(=O)Nc2ccccc2)cc1`, the EC50 was over 17.8 µM and the IC50 is over 17.8 µM.
In the case of `Cc1cc(Br)cc(C)c1NC(=O)C(=O)C1C(=O)C(CC2C(=O)c3ccccc3C2=O)C(=O)CC1(C)C` (configuration not stated), the EC50 was over 18.2 µM and the IC50 is over 18.2 µM.
Take `OC1CSCCSCCCSCCSC1`: the EC50 was over 126 µM and the IC50 is over 126 µM.
In the case of `COC(=O)C(Cc1ccccc1)NC(=O)C(CS)NC(=O)OC(C)(C)C` (stereo not drawn) (Boc-Cys-Phe-OMe; configuration not given here), the EC50 is over 200 µM and the IC50 was found to be 9.55 µM.
With `COC(=O)C=Cc1ccc2nncnc2c1` (mixture of isomers), the EC50 was over 200 µM and the IC50 was 44.7 µM.
As for `c1csc(-c2nn3c(C45CC6CC(CC(C6)C4)C5)nnc3s2)c1`, the EC50 is over 200 µM and the IC50 was over 200 µM.
Turning to `CC1(C)CC(=O)C2=C(C1)OC(N)=C(c1nc(-c3ccccc3)cs1)C2c1ccc(Br)cc1` (configuration not stated), the EC50 is over 200 µM and the IC50 turned out to be 22.9 µM.
In the case of `O=C(NNC(=S)Nc1ccc(Cl)cc1)c1cc(-c2ccccc2)nc2ccccc12`, the EC50 is over 200 µM and the IC50 amounted to 8.51 µM.
`CCOC(=O)C1(C)CCC(C(=O)OC)C1=O` (configuration not stated): the EC50 is over 794 µM and the concentration for half-maximal inhibition (IC50) worked out at 52.5 µM.
On to `C/C(=N\NC(=S)N1CCCCCC1)c1ccccn1`, for which the EC50 was over 49 µM and the IC50 came to 0.0372 µM.
Taken in the same sequence, the figures for `O=c1cc2ccccc2nn1-c1ccccc1Cl` were over 263 µM and 110 µM.
Taken in the same sequence, the figures for `COc1cc(Br)c(C=Nc2cccc3cc(OC)c(OC)cc23)cc1OC` were over 31.6 µM and over 31.6 µM.
On to `O=C(OCCN1CCCCC1)c1cc2ccccc2n1Cc1ccccc1`, for which the EC50 was over 200 µM and the IC50 came out at 30.2 µM.
Taken in the same sequence, the figures for `CC(=O)NCS(=O)(=O)O` were over 200 µM and over 200 µM.
Taken in the same sequence, the figures for `Nc1c(N=Nc2ccc(/C=C/c3ccc(N=Nc4cc(S(=O)(=O)O)c5cccc(S(=O)(=O)O)c5c4N)cc3S(=O)(=O)O)c(S(=O)(=O)O)c2)cc(S(=O)(=O)O)c2cccc(S(=O)(=O)O)c12` were 8.71 µM and 77.6 µM.
Taken in the same sequence, the figures for `Nc1ccn(C2SC(CO)CC2F)c(=O)n1` (configuration not stated) were over 25.1 µM and over 25.1 µM.
`FC(F)(Sc1ccccn1)c1nc2ccccc2o1`: the EC50 is 14.8 µM and the IC50 stood at 89.1 µM.
Taken in the same sequence, the figures for `O=C(O)c1ccc(C2SCc3nc4ccccc4n32)cc1` (configuration not stated) were over 200 µM and over 200 µM.
On to `N#C/C(N)=C(\C#N)NC(=O)C(=O)N/C(C#N)=C(\N)C#N`, for which the EC50 is 69.2 µM and the IC50 is over 200 µM.
Turning to `COC(=O)c1ccc(OCc2ccc3nc(-c4ccccc4)c(Cl)nc3c2)cc1`, the EC50 was over 200 µM and the IC50 was over 200 µM.
Regarding `CCCOCC(=O)OC`, the EC50 was over 1910 µM and the IC50 is over 1910 µM.
In the case of `COc1ccc(N(C)Sc2ccccc2)cc1`, the EC50 is over 200 µM and the IC50 was 38 µM.
The like results for `Cc1cn(C2CC(O)C(COC(=O)CCCCCCCCCCCBr)O2)c(=O)[nH]c1=O` (configuration not stated) were, in that order, 29.5 µM and 51.3 µM.
On to `COc1ccc2ccc3c(CCN(C)C#N)cc4c(c3c2c1OC(C)=O)OCO4`, for which the EC50 is over 34.7 µM and the half-maximal inhibitory concentration (IC50) is over 34.7 µM.
Regarding `CC1=NNC(=O)[C@H]2[C@H]1CCC1[C@@H]2CC[C@]2(C)[C@@H](O)CC[C@@H]12` (some centres not stated), the EC50 is over 200 µM and the IC50 is over 200 µM.
With `CCN(CC)C(=S)SC1C(=O)NC(=O)NC1=O`, the EC50 is over 200 µM and the IC50 was over 200 µM.
Turning to `COc1cc2c(cc1OC)CN1CCCc3cc(OC)c(OC)cc3C1C2` (configuration not stated), the EC50 was over 200 µM and the IC50 amounted to 32.4 µM.
With `O=C(O)Cc1cc(=O)oc2cc(O)c(Cl)cc12`, the EC50 is over 708 µM and the IC50 was over 708 µM.
In the case of `COC(NC(=O)Nc1ccccc1C)(C(F)(F)F)C(F)(F)F`, the EC50 was over 200 µM and the IC50 is 57.5 µM.
Taken in the same sequence, the figures for `C[C@@H](NC(=O)CNC(=O)OC(C)(C)C)C(=O)N[C@@H](Cc1ccccc1)C(=O)OCc1ccccc1` (HELM PEPTIDE1{[CC(C)(C)OC(=O)[*:2]].G.[dA].F.[c1ccc(CO[*:1])cc1]}$$$$V2.0) were over 200 µM and 97.7 µM.
As to `CCOC(=O)C(C)(c1cn(C)c2ccccc12)c1cn(C)c2ccccc12`, the result was inactive.
In the case of `CCC1(N)COC(c2ccccc2)OC1` (configuration not stated), the EC50 is over 200 µM and the IC50 was over 200 µM.
In the case of `CCCCCCCC(=O)[O-].CCCCCCCC(=O)[O-].N.N.N.N.[Co+3].[O-][Cl+3]([O-])([O-])[O-]`, the outcome was inactive.
Turning to `CSCCC(N)CO` (configuration not stated), the EC50 is over 200 µM and the IC50 was over 200 µM.
`CCN(CC)CCn1c(C)nc2c1C(=O)c1nc(C)n(CCN(CC)CC)c1C2=O`: the EC50 was over 200 µM and the IC50 was found to be 5.75 µM.
Taken in the same sequence, the figures for `CC(=O)OC1C[N+]2(CCc3ccccc3)CCC1CC2` (configuration not stated) were over 708 µM and over 708 µM.
The like results for `Cc1nc2cc(N)c(F)cc2[nH]1` were, in that order, over 537 µM and over 537 µM.
Consider `O=[N+]([O-])c1ccc(S(=O)(=O)N=Ic2ccccc2)cc1`, for which the EC50 was over 200 µM and the IC50 is over 200 µM.
As to `O=C1CC(=O)N(CCc2ccccn2)C(=O)N1CCc1ccccn1`, the outcome was inactive.
